Consider nine compounds from US7557100B2, “Antibacterial agents” (Pfizer Inc., priority 2005, dated 2009).

One assay relates to H. influenzae HI-3542. Put plainly: Microbroth dilution MIC testing against H. influenzae. The following applies: HI3542, H. influenzae 3542, Haemophilus Test Medium, 35° C., 16 to 24 hours, read-out: Minimum Inhibitory Concentration H. influenzae 3542. In kind it is cell-based. On the procedure: (§1) In this example, the in vitro antibacterial activity of selected compounds was determined against S. aureus and H. influenzae. Except for clarifying or modifying statements, MIC testing followed procedures recommended by the NCCLS^1-2 or followed the descriptions cited below.
(§2) Bacterial Cultures At least the following organisms are included in the screen: Staphylococcus aureus SA-1 (UC-76) and H. influenzae HI-3542. Incubations were at 35° C. Stock bacterial cultures were maintained on Tryptic Soy Agar containing 5% Sheep Blood (BD, Becton Dickinson Microbiology Systems, Cockeysville, Md.), anaerobes were maintained on Anaerobic Blood Agar plates—CDC Formulation (BD), and fastidious organisms were maintained on Chocolate Agar II Plates (BD). Specific conditions of handling are listed below.
Haemophilus was maintained on Chocolate Agar II Plates at room temperature in a candle jar providing a 3 5% CO2 atmosphere.
(§3) Standardized Organism Inocula Frozen stock cultures were used as the initial source of organisms for performing microbroth dilution MIC testing. Stock cultures were passed on their standard growth medium for at least 1 growth cycle (18 24 hours) prior to their use.
(§4) Most bacteria, unless otherwise noted, were prepared directly from agar plates in 10 mL aliquots of the appropriate broth medium. Bacterial cultures were adjusted to the opacity of a 0.5 McFarland Standard (optical density value of 0.28-0.33 on a Perkin-Elmer Lambda EZ150 Spectrophotometer Wellesley, Mass., set at a wavelength of 600 nm).). The adjusted cultures were diluted 400 fold (0.25 mL inoculum+100 mL broth) in growth media to produce a starting suspension of approximately 5×10^5 colony forming units (CFU)/mL. Unless otherwise noted, bacterial strains were tested in cation adjusted Mueller Hinton Broth (CAMHB).
Haemophilus influenzae strains were grown on Chocolate Agar II Plates and tested in Haemophilus Test Medium (Remel, Lenexa, Kans.).
(§5) Test Compound (“Drug”) Preparation Compounds were solubilized in DMSO. Drug stock solutions were prepared on the day of testing. Drugs were weight corrected for assay content where necessary.
(§6) Drug Dilution Tray Preparation Microbroth dilution stock plates were prepared in two dilution series, 64 to 0.06 μg drug/mL and 0.25 to 0.00025 μg drug/mL. For the high concentration series, 200 μL of stock solution (2 mg/mL) was added to duplicate rows of a 96-well microtiter plate. This was used as the first well in the dilution series. Serial two-fold decremental dilutions were made using a BioMek FX robot (Beckman Coulter Inc., Fullerton, Calif.) with 10 of the remaining 11 wells, each of which contained 100 μL of the appropriate solvent/diluent. Row 12 contained solvent/diluent only and served as the control. For tube one of the low concentration series, 200 μL of an 8 μg/mL stock was added to duplicate rows of a 96-well plate. Serial two-fold dilutions were made as described above.
(§7) Daughter plates were spotted (3.2 μL/well) from the stock plates listed above using the BioMek FX robot and were either used immediately or frozen at −70° C. until use.
(§8) Plate Inoculation Aerobic organisms were inoculated (100 μL volumes) into the thawed plates using the BioMek FX robot. The inoculated plates were placed in stacks of no more than 5 and covered with an empty plate. These plates were incubated 16 to 24 hours in ambient atmosphere according to CLSI guidelines^2.
Reading the Test After inoculation and incubation, the degree of bacterial growth was estimated visually with the aid of a Test Reading Mirror (Dynex Technologies 220 16) in a darkened room with a single light shining directly through the top of the microbroth tray. The MIC was the lowest concentration of drug that prevented macroscopically visible growth under the conditions of the test. Testing was performed in duplicate. When the MIC values in duplicate tests varied by 1 well (2 fold), the lower values were reported. If the MICs varied by 2 dilutions, the middle value was reported. […]
(In general: Broth dilution looks for growth in wells or tubes with falling amounts of substance.)

Assay [1] concerns Staphylococcus aureus SA-1 (UC-76). Put plainly: Microbroth dilution MIC testing against S. aureus. In kind it is cell-based. The following applies: S. aureus UC76, CAMHB, 35° C., 16 to 24 hours, read-out: Minimum Inhibitory Concentration S. aureus UC76. As to the method:
as §1, §2, §3, §4, §5, §6, §7, §8
Reading the Test After inoculation and incubation, the degree of bacterial growth was estimated visually with the aid of a Test Reading Mirror (Dynex Technologies 220 16) in a darkened room with a single light shining directly through the top of the microbroth tray. The MIC was the lowest concentration of drug that prevented macroscopically visible growth under the conditions of the test. Testing was performed in duplicate. When the MIC values in duplicate tests varied by 1 well (2 fold), the lower values were reported. If the MICs varied by 2 dilutions, the middle value was reported. Greater than this 4 fold variance called for the test to be repeated, after which a similar determination was applied to all values.

The structures appear in SMILES notation. Values after ≈ are worked out from the molar mass of the structure shown.

Take `COc1nccnc1-c1ccc2c(c1)CC1(C(=O)NC(=O)NC1=O)[C@@H]1[C@@H](C)O[C@@H](C)CN21` (relative stereo) [Compound 21, rel-(2S,4R,4aR)-8-(3-methoxypyrazin-2-yl)-2,4-dimethyl-1,2,4,4a-tetrahydro-2′H,6H-spiro[1,4-oxazino[4,3-a]quinoline-5,5′-pyrimidine]-2′,4′,6′(1′H,3′H)-trione]: the figures for the MIC (in the assay on H. influenzae HI-3542; in assay [1]) were 32 µg/mL (≈ 73.2 µM) and 16 µg/mL (≈ 36.6 µM), respectively.

In the case of `C[C@@H]1CN2c3c(cc(-c4cnccn4)c(F)c3F)CC3(C(=O)NC(=O)NC3=O)[C@H]2[C@H](C)O1` [Compound 2, (2R,4S,4aS)-9,10-difluoro-2,4-dimethyl-8-pyrazin-2-yl-1,2,4,4a-tetrahydro-2′H,6H-spiro[1,4-oxazino[4,3-a]quinoline-5,5′-pyrimidine]-2′,4′,6′(1′H,3′H)-trione], the MIC in the assay with H. influenzae HI-3542 is 0.5 µg/mL (≈ 1.13 µM); in assay [1] it was 0.125 µg/mL (≈ 0.282 µM).

With `C[C@@H]1CN2c3c(cc(-c4cnccn4)c(F)c3F)CC3(C(=O)N(CN4CCOCC4)C(=O)N(CN4CCOCC4)C3=O)[C@H]2[C@H](C)O1` [Compound 4, (2R,4S,4aS)-9,10-difluoro-2,4-dimethyl-1′,3′-bis(morpholin-4-ylmethyl)-8-pyrazin-2-yl-1,2,4,4a-tetrahydro-2′H,6H-spiro[1,4-oxazino[4,3-a]quinoline-5,5′-pyrimidine]-2′,4′,6′(1′H,3′H)-trione], the MIC is 0.5 µg/mL (≈ 0.779 µM) in the assay with H. influenzae HI-3542 and 0.25 µg/mL (≈ 0.39 µM) in assay [1].

Turning to `C[C@@H]1CN2c3c(cc(-c4cnccn4)c(F)c3F)CC3(C(=O)N(CN4CCN(C)CC4)C(=O)N(CN4CCN(C)CC4)C3=O)[C@H]2[C@H](C)O1` [Compound 5, (2R,4S,4aS)-9,10-difluoro-2,4-dimethyl-1′,3′-bis[(4-methylpiperazin-1-yl)methyl]-8-pyrazin-2-yl-1,2,4,4a-tetrahydro-2′H,6H-spiro[1,4-oxazino[4,3-a]quinoline-5,5′-pyrimidine]-2′,4′,6′(1′H,3′H)-trione], the MIC came out at 1 µg/mL (≈ 1.5 µM) in the assay with H. influenzae HI-3542 and 0.5 µg/mL (≈ 0.749 µM) in assay [1].

Take `C[C@@H]1CN2c3c(cc(-c4c[n+]([O-])ccn4)c(F)c3F)CC3(C(=O)NC(=O)NC3=O)[C@H]2[C@H](C)O1` [Compound 6, (2R,4S,4aS)-9,10-difluoro-2,4-dimethyl-8-(4-oxidopyrazinpyrazin-2-yl)-1,2,4,4a-tetrahydro-2′H,6H-spiro[1,4-oxazino[4,3-a]quinoline-5,5′-pyrimidine]-2′,4′,6′(1′H,3′H)-trione]: the MIC in the assay with H. influenzae HI-3542 was found to be 0.25 µg/mL (≈ 0.544 µM); in assay [1], 0.5 µg/mL (≈ 1.09 µM).

On to `C[C@@H]1CN2c3c(cc(-c4cnc(N)cn4)c(F)c3F)CC3(C(=O)NC(=O)NC3=O)[C@H]2[C@H](C)O1` [Compound 22, (2R,4S,4aS)-8-(5-aminopyrazin-2-yl)-9,10-difluoro-2,4-dimethyl-1,2,4,4a-tetrahydro-2′H,6H-spiro[1,4-oxazino[4,3-a]quinoline-5,5′-pyrimidine]-2′,4′,6′(1′H,3′H)-trione], for which the MIC (with H. influenzae HI-3542; in assay [1]) was 0.5 µg/mL (≈ 1.09 µM) each time.

In the case of `Cc1cnc(-c2cc3c(c(F)c2F)N2C[C@@H](C)O[C@@H](C)[C@@H]2C2(C3)C(=O)NC(=O)NC2=O)cn1` [Compound 23, (2R,4S,4aS)-9,10-difluoro-2,4-dimethyl-8-(5-methylpyrazin-2-yl)-1,2,4,4a-tetrahydro-2′H,6H-spiro[1,4-oxazino[4,3-a]quinoline-5,5′-pyrimidine]-2′,4′,6′(1′H,3′H)-trione], the MIC with H. influenzae HI-3542 amounted to 1 µg/mL (≈ 2.19 µM); in assay [1] it was 0.125 µg/mL (≈ 0.273 µM).

Regarding `COc1cnc(-c2cc3c(c(F)c2F)N2C[C@@H](C)O[C@@H](C)[C@@H]2C2(C3)C(=O)NC(=O)NC2=O)cn1` [Compound 25, (2R,4S,4aS)-9,10-difluoro-8-(5-methoxypyrazin-2-yl)-2,4-dimethyl-1,2,4,4a-tetrahydro-2′H,6H-spiro[1,4-oxazino[4,3-a]quinoline-5,5′-pyrimidine]-2′,4′,6′(1′H,3′H)-trione], the MIC with H. influenzae HI-3542 is 0.5 µg/mL (≈ 1.06 µM); in assay [1] it was 0.125 µg/mL (≈ 0.264 µM).

Consider `CCOc1cnc(-c2cc3c(c(F)c2F)N2C[C@@H](C)O[C@@H](C)[C@@H]2C2(C3)C(=O)NC(=O)NC2=O)cn1` [Compound 26, (2R,4S,4aS)-8-(5-ethoxypyrazin-2-yl)-9,10-difluoro-2,4-dimethyl-1,2,4,4a-tetrahydro-2′H,6H-spiro[1,4-oxazino[4,3-a]quinoline-5,5′-pyrimidine]-2′,4′,6′(1′H,3′H)-trione], for which the MIC was determined as 1 µg/mL (≈ 2.05 µM) in the assay with H. influenzae HI-3542 and 0.25 µg/mL (≈ 0.513 µM) in assay [1].
